# According to ChEMBL document CHEMBL1145342, “Structure-based drug design and structural biology study of novel nonpeptide inhibitors of severe acute respiratory syndrome coronavirus main protease” (J Med Chem, 2006):
# What was measured:
# [1] = biological target: Replicase polyprotein 1a (Severe acute respiratory syndrome-related coronavirus) (UniProt P0C6U8); experiment: Inhibition of SARS coronavirus main protease at 10 uM
# Replicase polyprotein 1a = Replicase polyprotein 1a (Severe acute respiratory syndrome-related coronavirus, UniProt P0C6U8); experiment: Inhibition of SARS coronavirus main protease
Compound,inhibition [1],IC50 (Replicase polyprotein 1a)
Clc1ccc(-c2noc(CSC3=NCCN3)n2)cc1,61%,
CC1(C)CC(=O)c2c(NCc3ccco3)sc(C#N)c2C1,,16 µM
O=[N+]([O-])c1ccc(S(=O)(=O)c2ccc([N+](=O)[O-])cc2)cc1,,25 µM
Cc1nn(C)c(NCc2ccc(-c3cccs3)s2)c1[N+](=O)[O-],,20 µM
O=C(Oc1ccc(S(=O)(=O)c2ccc(OC(=O)C(Cl)=C(Cl)Cl)cc2)cc1)C(Cl)=C(Cl)Cl,,0.9 µM
Cc1oc(C(C)(C)C)cc1-c1cc(NS(=O)(=O)c2cccs2)[nH]n1,,10 µM
CCOC(=O)C(=CNc1ccc(S(=O)(=O)c2ccc(/N=C/C(C(=O)OCC)=C(\O)OCC)cc2)cc1)C(=O)OCC,,32 µM
COc1ccc([N+](=O)[O-])c(S(=O)(=O)c2ccccc2)n1,58%,
CSc1[nH]nc(NC(=O)c2cccs2)c1S(=O)(=O)c1ccccc1,,15 µM
CC(=O)c1ccccc1S(=O)(=O)c1ccccc1C(=O)O,,16 µM
Cc1noc(NC(=O)c2ccc(-c3cc(C(F)(F)F)nn3C)s2)c1[N+](=O)[O-],,5 µM
Nc1ncc(S(=O)(=O)c2ccc(Cl)cc2)c(N)n1,,6 µM
O=C(Cc1nccs1)c1nccs1,,40 µM
O=[N+]([O-])c1cc(C(F)(F)F)ccc1S(=O)(=O)c1ccc(Cl)cc1,,12 µM
O=[N+]([O-])c1ccc(S(=O)(=O)c2ccc(Cl)cc2)[n+]([O-])c1,,15 µM
O=C(O)c1ccc(S(=O)(=O)c2cc(Br)c(O)c(Br)c2)cc1,,16 µM
CCOC(=O)/C(C#N)=C/Nc1ccc(S(=O)(=O)c2ccc(/N=C/C(C#N)=C(\O)OCC)cc2)cc1,,16 µM
O=S(=O)(Cc1[nH]c(-c2ccc(Cl)s2)c[s+]1)c1cccs1,,18 µM
